Key:
[1] = target: T1, HDAC1 (Homo sapiens, UniProt Q13547); assay: Fluorogenic HDAC deacetylase assay (BPS Bioscience); assay type: biochemical; conditions: read-out: % inhibition @ 10 uM
T1 construct: purchased BPS Bioscience 50051

[2] = target: T2, HDAC6 (Homo sapiens, UniProt Q9UBN7); assay: as above; assay type: biochemical
T2 construct: purchased BPS Bioscience 50006

[3] = target: T3, HDAC10 (Homo sapiens, UniProt Q969S8); assay: as above; assay type: biochemical; conditions: read-out: % inhibition @ 10 uM
T3 construct: purchased BPS Bioscience 50060

[4] = target: T4, HDAC9 (Homo sapiens, UniProt Q9UKV0); assay: as above; assay type: biochemical
T4 construct: purchased BPS Bioscience 50009

[5] = target: T5, HDAC2 (Homo sapiens, UniProt Q92769); assay: biochemical; conditions: read-out: % inhibition @ 10 uM
T5 construct: purchased BPS Bioscience 50002

[6] = tested on: implanted tumors (malignant glioma); set-up: method as in PMID 26409450; conditions: direct injection into implanted tumors; cited from earlier work

T4 sequence (Q9UKV0 1-1066 isoform Q9UKV0-5): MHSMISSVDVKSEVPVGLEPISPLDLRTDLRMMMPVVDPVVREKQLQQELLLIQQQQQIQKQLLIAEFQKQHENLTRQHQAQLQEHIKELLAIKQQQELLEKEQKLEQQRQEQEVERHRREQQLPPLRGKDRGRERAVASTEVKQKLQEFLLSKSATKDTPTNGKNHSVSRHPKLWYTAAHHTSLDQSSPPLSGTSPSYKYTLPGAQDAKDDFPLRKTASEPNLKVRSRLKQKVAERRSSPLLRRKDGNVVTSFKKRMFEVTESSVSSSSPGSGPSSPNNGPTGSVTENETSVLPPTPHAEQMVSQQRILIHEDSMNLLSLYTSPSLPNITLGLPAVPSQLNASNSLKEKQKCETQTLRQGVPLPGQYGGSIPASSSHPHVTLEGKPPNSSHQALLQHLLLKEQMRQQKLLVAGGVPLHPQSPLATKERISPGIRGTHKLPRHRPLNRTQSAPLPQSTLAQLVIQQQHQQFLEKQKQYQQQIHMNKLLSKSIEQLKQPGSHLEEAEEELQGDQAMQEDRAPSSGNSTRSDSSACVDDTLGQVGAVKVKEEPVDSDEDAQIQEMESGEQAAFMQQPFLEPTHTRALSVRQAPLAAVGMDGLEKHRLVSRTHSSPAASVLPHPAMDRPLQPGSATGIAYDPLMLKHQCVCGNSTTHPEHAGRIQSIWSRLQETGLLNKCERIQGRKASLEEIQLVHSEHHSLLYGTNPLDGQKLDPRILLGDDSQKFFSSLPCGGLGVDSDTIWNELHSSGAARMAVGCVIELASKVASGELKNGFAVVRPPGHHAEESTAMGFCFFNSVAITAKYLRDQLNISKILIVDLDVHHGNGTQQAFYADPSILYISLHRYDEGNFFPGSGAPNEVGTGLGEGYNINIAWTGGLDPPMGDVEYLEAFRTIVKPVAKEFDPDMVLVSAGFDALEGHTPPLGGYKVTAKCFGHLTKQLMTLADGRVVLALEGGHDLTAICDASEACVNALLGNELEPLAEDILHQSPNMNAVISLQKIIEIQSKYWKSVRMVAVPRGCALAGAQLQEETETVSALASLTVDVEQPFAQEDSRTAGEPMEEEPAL
T2 sequence (Q9UBN7 whole entry): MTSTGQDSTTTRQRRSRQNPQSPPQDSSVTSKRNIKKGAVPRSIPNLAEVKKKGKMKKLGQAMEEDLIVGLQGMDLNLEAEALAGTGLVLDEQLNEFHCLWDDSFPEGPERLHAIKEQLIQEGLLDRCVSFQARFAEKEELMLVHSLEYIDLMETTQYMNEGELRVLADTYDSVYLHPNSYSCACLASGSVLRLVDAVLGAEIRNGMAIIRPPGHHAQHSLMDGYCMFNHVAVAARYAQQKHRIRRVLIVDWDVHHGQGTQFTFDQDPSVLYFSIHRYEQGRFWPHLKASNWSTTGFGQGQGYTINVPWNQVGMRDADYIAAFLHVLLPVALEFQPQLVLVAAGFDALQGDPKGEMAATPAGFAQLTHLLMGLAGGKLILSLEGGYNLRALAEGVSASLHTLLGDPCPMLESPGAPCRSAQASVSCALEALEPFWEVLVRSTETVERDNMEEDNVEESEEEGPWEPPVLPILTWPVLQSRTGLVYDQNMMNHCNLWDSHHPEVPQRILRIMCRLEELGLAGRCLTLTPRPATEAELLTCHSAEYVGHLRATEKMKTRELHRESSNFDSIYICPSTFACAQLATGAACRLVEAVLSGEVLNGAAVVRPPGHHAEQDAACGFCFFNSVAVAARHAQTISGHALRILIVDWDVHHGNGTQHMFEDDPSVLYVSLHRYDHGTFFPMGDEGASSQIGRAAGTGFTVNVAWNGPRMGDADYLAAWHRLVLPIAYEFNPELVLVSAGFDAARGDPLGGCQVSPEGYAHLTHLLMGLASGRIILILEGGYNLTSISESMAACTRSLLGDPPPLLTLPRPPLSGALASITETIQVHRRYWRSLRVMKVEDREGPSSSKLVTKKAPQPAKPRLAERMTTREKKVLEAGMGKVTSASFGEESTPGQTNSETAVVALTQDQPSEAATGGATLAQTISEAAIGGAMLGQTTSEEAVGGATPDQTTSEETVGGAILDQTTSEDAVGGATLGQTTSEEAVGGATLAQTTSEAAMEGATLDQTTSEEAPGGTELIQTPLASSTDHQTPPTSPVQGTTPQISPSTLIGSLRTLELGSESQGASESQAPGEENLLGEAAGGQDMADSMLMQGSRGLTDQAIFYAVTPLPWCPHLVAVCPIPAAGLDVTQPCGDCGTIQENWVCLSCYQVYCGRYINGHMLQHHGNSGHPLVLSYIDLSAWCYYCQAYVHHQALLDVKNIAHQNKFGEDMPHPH
T5 sequence (Q92769 whole entry): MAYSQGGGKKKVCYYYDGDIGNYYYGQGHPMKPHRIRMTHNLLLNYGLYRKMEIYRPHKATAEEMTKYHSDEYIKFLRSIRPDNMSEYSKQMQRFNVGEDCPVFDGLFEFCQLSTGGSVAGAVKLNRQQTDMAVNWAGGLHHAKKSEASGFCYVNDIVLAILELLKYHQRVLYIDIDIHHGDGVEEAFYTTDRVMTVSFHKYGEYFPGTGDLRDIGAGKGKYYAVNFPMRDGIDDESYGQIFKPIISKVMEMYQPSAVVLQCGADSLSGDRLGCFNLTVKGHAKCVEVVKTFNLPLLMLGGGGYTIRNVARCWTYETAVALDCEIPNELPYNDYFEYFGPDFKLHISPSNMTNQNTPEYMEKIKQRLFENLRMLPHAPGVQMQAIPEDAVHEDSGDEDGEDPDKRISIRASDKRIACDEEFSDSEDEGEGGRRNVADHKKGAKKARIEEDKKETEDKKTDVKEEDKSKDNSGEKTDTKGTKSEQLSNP
T3 sequence (Q969S8 whole entry): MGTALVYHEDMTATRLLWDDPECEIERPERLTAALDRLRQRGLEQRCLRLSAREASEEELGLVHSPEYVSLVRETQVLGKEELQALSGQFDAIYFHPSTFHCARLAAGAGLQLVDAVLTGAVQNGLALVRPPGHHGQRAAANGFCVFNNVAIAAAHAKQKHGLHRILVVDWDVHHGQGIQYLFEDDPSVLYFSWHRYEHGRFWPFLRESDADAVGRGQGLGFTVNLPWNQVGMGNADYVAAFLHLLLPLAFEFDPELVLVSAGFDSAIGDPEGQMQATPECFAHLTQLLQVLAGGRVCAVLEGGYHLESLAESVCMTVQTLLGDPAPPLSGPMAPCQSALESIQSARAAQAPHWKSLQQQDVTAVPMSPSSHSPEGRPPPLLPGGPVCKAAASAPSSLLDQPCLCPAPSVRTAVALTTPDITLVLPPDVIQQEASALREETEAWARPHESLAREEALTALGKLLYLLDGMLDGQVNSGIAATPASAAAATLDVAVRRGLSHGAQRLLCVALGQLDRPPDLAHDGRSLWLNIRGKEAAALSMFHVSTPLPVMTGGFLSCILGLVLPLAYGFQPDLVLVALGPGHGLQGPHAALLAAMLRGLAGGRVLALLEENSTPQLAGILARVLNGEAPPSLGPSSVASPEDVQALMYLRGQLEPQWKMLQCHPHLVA
T1 sequence (Q13547 whole entry): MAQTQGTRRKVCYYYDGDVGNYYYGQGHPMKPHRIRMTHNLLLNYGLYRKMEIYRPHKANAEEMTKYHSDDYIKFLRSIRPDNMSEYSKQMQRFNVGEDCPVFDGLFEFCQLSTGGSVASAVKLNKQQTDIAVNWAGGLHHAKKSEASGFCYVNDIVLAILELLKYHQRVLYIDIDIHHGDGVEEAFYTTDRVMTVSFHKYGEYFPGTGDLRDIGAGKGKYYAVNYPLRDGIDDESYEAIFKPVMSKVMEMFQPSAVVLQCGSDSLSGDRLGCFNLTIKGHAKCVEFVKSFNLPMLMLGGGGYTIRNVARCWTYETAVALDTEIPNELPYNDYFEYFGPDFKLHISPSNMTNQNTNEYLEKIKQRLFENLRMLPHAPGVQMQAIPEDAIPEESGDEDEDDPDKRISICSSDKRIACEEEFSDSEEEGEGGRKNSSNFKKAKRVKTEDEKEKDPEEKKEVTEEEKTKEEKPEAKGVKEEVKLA

**Q.** For CC(COc1ccccc1)N(CCCl)Cc1ccccc1 (stereo not drawn) [PBZ, phenoxybenzamine], which inhibition at 10 µM [1] is on record?
**A.** 16%

**Q.** What about the IC50 [2] of the same compound?
**A.** 0.59 µM

**Q.** And the inhibition at 10 µM [3]?
**A.** 0%

**Q.** What about the IC50 [4] of the same compound?
**A.** 5.3 µM

**Q.** What about the inhibition at 10 µM [5] of the same compound?
**A.** 0%

**Q.** What about the “expansion of tumor volume in vivo” value [6] of the same compound?
**A.** marked reduction in expansion of tumor volume

— publication PMC5999115, “Anti-tumor activity of phenoxybenzamine and its inhibition of histone deacetylases” (PLoS ONE, 2018)
